± gives the expanded uncertainty stated by the source.
Assay: relative permittivity at various frequencies (dimensionless)
Conditions: Fluid (supercritical or subcritical phases), Frequency=0.06 MHz, Parallel plate capacitor

## CC(F)(F)F [1,1,1-trifluoroethane]
302.8 K, 1600 kPa
  relative permittivity: 9.28 ± 0.69
302.8 K, 4000 kPa
  relative permittivity: 9.44 ± 0.7
302.8 K, 6200 kPa
  relative permittivity: 9.56 ± 0.71
302.8 K, 8200 kPa
  relative permittivity: 9.67 ± 0.72
302.8 K, 10200 kPa
  relative permittivity: 9.77 ± 0.72
302.8 K, 12300 kPa
  relative permittivity: 9.86 ± 0.73
302.8 K, 16200 kPa
  relative permittivity: 10.02 ± 0.74
302.8 K, 18500 kPa
  relative permittivity: 10.1 ± 0.75
302.8 K, 20100 kPa
  relative permittivity: 10.16 ± 0.75
302.8 K, 22000 kPa
  relative permittivity: 10.24 ± 0.76
302.8 K, 24200 kPa
  relative permittivity: 10.31 ± 0.76
302.8 K, 26300 kPa
  relative permittivity: 10.38 ± 0.77
302.8 K, 28300 kPa
  relative permittivity: 10.44 ± 0.77
302.8 K, 30700 kPa
  relative permittivity: 10.51 ± 0.78
313.2 K, 1700 kPa
  relative permittivity: 8.61 ± 0.64
313.2 K, 2700 kPa
  relative permittivity: 8.69 ± 0.64
313.2 K, 4200 kPa
  relative permittivity: 8.82 ± 0.65
313.2 K, 6300 kPa
  relative permittivity: 8.96 ± 0.66
313.2 K, 8000 kPa
  relative permittivity: 9.05 ± 0.67
313.2 K, 8800 kPa
  relative permittivity: 9.12 ± 0.68
313.2 K, 14200 kPa
  relative permittivity: 9.39 ± 0.7
313.2 K, 16300 kPa
  relative permittivity: 9.49 ± 0.7
313.2 K, 18400 kPa
  relative permittivity: 9.58 ± 0.71
313.2 K, 20400 kPa
  relative permittivity: 9.67 ± 0.72
313.2 K, 21800 kPa
  relative permittivity: 9.73 ± 0.72
313.2 K, 24200 kPa
  relative permittivity: 9.81 ± 0.73
313.2 K, 26100 kPa
  relative permittivity: 9.87 ± 0.73
313.2 K, 28400 kPa
  relative permittivity: 9.9 ± 0.73
313.2 K, 30300 kPa
  relative permittivity: 9.95 ± 0.74
313.2 K, 31600 kPa
  relative permittivity: 9.98 ± 0.74
322.8 K, 2400 kPa
  relative permittivity: 8.08 ± 0.6
322.8 K, 4500 kPa
  relative permittivity: 8.27 ± 0.61
322.8 K, 6500 kPa
  relative permittivity: 8.43 ± 0.62
322.8 K, 8400 kPa
  relative permittivity: 8.56 ± 0.63
322.8 K, 10300 kPa
  relative permittivity: 8.68 ± 0.64
322.8 K, 12100 kPa
  relative permittivity: 8.79 ± 0.65
322.8 K, 14300 kPa
  relative permittivity: 8.89 ± 0.66
322.8 K, 16300 kPa
  relative permittivity: 8.98 ± 0.67
322.8 K, 18300 kPa
  relative permittivity: 9.07 ± 0.67
322.8 K, 20200 kPa
  relative permittivity: 9.16 ± 0.68
322.8 K, 22300 kPa
  relative permittivity: 9.24 ± 0.68
322.8 K, 24400 kPa
  relative permittivity: 9.32 ± 0.69
322.8 K, 26200 kPa
  relative permittivity: 9.38 ± 0.69
322.8 K, 27900 kPa
  relative permittivity: 9.43 ± 0.7
322.8 K, 28800 kPa
  relative permittivity: 9.46 ± 0.7
322.8 K, 31000 kPa
  relative permittivity: 9.49 ± 0.7
333 K, 1500 kPa
  relative permittivity: 7.35 ± 0.55
333 K, 2600 kPa
  relative permittivity: 7.45 ± 0.55
333 K, 4400 kPa
  relative permittivity: 7.66 ± 0.57
333 K, 6300 kPa
  relative permittivity: 7.84 ± 0.58
333 K, 8400 kPa
  relative permittivity: 8.01 ± 0.59
333 K, 10300 kPa
  relative permittivity: 8.14 ± 0.6
333 K, 12400 kPa
  relative permittivity: 8.26 ± 0.61
333 K, 14400 kPa
  relative permittivity: 8.38 ± 0.62
333 K, 16300 kPa
  relative permittivity: 8.48 ± 0.63
333 K, 18300 kPa
  relative permittivity: 8.58 ± 0.64
333 K, 20100 kPa
  relative permittivity: 8.66 ± 0.64
333 K, 21100 kPa
  relative permittivity: 8.7 ± 0.64
333 K, 22400 kPa
  relative permittivity: 8.73 ± 0.65
333 K, 24100 kPa
  relative permittivity: 8.8 ± 0.65
333 K, 26000 kPa
  relative permittivity: 8.87 ± 0.66
333 K, 27400 kPa
  relative permittivity: 8.93 ± 0.66
333 K, 29300 kPa
  relative permittivity: 8.99 ± 0.67
343.4 K, 2200 kPa
  relative permittivity: 6.66 ± 0.5
343.4 K, 3000 kPa
  relative permittivity: 6.79 ± 0.5
343.4 K, 4000 kPa
  relative permittivity: 6.95 ± 0.52
343.4 K, 5000 kPa
  relative permittivity: 7.06 ± 0.52
343.4 K, 6200 kPa
  relative permittivity: 7.2 ± 0.53
343.4 K, 8100 kPa
  relative permittivity: 7.4 ± 0.55
343.4 K, 9200 kPa
  relative permittivity: 7.47 ± 0.55
343.4 K, 10400 kPa
  relative permittivity: 7.58 ± 0.56
343.4 K, 12300 kPa
  relative permittivity: 7.71 ± 0.57
343.4 K, 14200 kPa
  relative permittivity: 7.83 ± 0.58
343.4 K, 16200 kPa
  relative permittivity: 7.94 ± 0.59
343.4 K, 18200 kPa
  relative permittivity: 8.04 ± 0.6
343.4 K, 20300 kPa
  relative permittivity: 8.14 ± 0.6
343.4 K, 22200 kPa
  relative permittivity: 8.22 ± 0.61
343.4 K, 24200 kPa
  relative permittivity: 8.31 ± 0.62
343.4 K, 26000 kPa
  relative permittivity: 8.37 ± 0.62
343.4 K, 28000 kPa
  relative permittivity: 8.45 ± 0.63
343.4 K, 29500 kPa
  relative permittivity: 8.5 ± 0.63
353.4 K, 2600 kPa
  relative permittivity: 6.05 ± 0.45
353.4 K, 4600 kPa
  relative permittivity: 6.39 ± 0.47
353.4 K, 6400 kPa
  relative permittivity: 6.65 ± 0.49
353.4 K, 8100 kPa
  relative permittivity: 6.84 ± 0.51
353.4 K, 10000 kPa
  relative permittivity: 6.99 ± 0.52
353.4 K, 12200 kPa
  relative permittivity: 7.15 ± 0.53
353.4 K, 14400 kPa
  relative permittivity: 7.29 ± 0.54
353.4 K, 16400 kPa
  relative permittivity: 7.41 ± 0.55
353.4 K, 18300 kPa
  relative permittivity: 7.52 ± 0.56
353.4 K, 20200 kPa
  relative permittivity: 7.6 ± 0.56
353.4 K, 22200 kPa
  relative permittivity: 7.7 ± 0.57
353.4 K, 24400 kPa
  relative permittivity: 7.78 ± 0.58
353.4 K, 26400 kPa
  relative permittivity: 7.86 ± 0.58
353.4 K, 28600 kPa
  relative permittivity: 7.95 ± 0.59
363.8 K, 3600 kPa
  relative permittivity: 5.46 ± 0.41
363.8 K, 4300 kPa
  relative permittivity: 5.73 ± 0.43
363.8 K, 6100 kPa
  relative permittivity: 6.09 ± 0.45
363.8 K, 8200 kPa
  relative permittivity: 6.37 ± 0.47
363.8 K, 10200 kPa
  relative permittivity: 6.57 ± 0.49
363.8 K, 12200 kPa
  relative permittivity: 6.74 ± 0.5
363.8 K, 14200 kPa
  relative permittivity: 6.88 ± 0.51
363.8 K, 16200 kPa
  relative permittivity: 7.01 ± 0.52
363.8 K, 18200 kPa
  relative permittivity: 7.12 ± 0.53
363.8 K, 20300 kPa
  relative permittivity: 7.22 ± 0.53
363.8 K, 22200 kPa
  relative permittivity: 7.31 ± 0.54
363.8 K, 24300 kPa
  relative permittivity: 7.41 ± 0.55
363.8 K, 26000 kPa
  relative permittivity: 7.48 ± 0.55
363.8 K, 28200 kPa
  relative permittivity: 7.56 ± 0.56
363.8 K, 30000 kPa
  relative permittivity: 7.63 ± 0.57
363.8 K, 31200 kPa
  relative permittivity: 7.66 ± 0.57
372.9 K, 4000 kPa
  relative permittivity: 4.66 ± 0.36
372.9 K, 6300 kPa
  relative permittivity: 5.55 ± 0.42
372.9 K, 8200 kPa
  relative permittivity: 5.86 ± 0.44
372.9 K, 10100 kPa
  relative permittivity: 6.08 ± 0.45
372.9 K, 12200 kPa
  relative permittivity: 6.27 ± 0.46
372.9 K, 14200 kPa
  relative permittivity: 6.42 ± 0.48
372.9 K, 16000 kPa
  relative permittivity: 6.53 ± 0.48
372.9 K, 18000 kPa
  relative permittivity: 6.65 ± 0.49
372.9 K, 20200 kPa
  relative permittivity: 6.75 ± 0.5
372.9 K, 22200 kPa
  relative permittivity: 6.85 ± 0.51
372.9 K, 24200 kPa
  relative permittivity: 6.94 ± 0.51
372.9 K, 26200 kPa
  relative permittivity: 7.02 ± 0.52
372.9 K, 28100 kPa
  relative permittivity: 7.09 ± 0.53
372.9 K, 29800 kPa
  relative permittivity: 7.15 ± 0.53
372.9 K, 30700 kPa
  relative permittivity: 7.18 ± 0.53
383.1 K, 4800 kPa
  relative permittivity: 3.97 ± 0.33
383.1 K, 5800 kPa
  relative permittivity: 4.7 ± 0.37
383.1 K, 6800 kPa
  relative permittivity: 5.06 ± 0.38
383.1 K, 8200 kPa
  relative permittivity: 5.35 ± 0.4
383.1 K, 10400 kPa
  relative permittivity: 5.65 ± 0.42
383.1 K, 12000 kPa
  relative permittivity: 5.8 ± 0.43
383.1 K, 14200 kPa
  relative permittivity: 6.09 ± 0.45
383.1 K, 16200 kPa
  relative permittivity: 6.24 ± 0.46
383.1 K, 18400 kPa
  relative permittivity: 6.38 ± 0.47
383.1 K, 20000 kPa
  relative permittivity: 6.48 ± 0.48

From the NIST ThermoML archive (doi:10.1021/je7000446)
